Laboratory results as given in PubChem BioAssay AID1259407 (Chemical Carcinogenesis Research Information System (CCRIS), 2018).
Calls of active or inactive are those of the source. How the calls were made is not given here.

Tested on: CCRIS mutagenicity, Ames/micronucleus/aberration tests
Assay: CCRIS mutagenicity studies
[1] = Test System: AMES SALMONELLA TYPHIMURIUM, Strain/Indicator: TA1535, Metabolic Activation: NONE, Method: STANDARD PLATE
[2] = Test System: AMES SALMONELLA TYPHIMURIUM, Strain/Indicator: TA1535, Metabolic Activation: RAT, LIVER, S-9, AROCLOR 1254, Method: STANDARD PLATE
[3] = Test System: AMES SALMONELLA TYPHIMURIUM, Strain/Indicator: TA1537, Metabolic Activation: NONE, Method: STANDARD PLATE
[4] = Test System: AMES SALMONELLA TYPHIMURIUM, Strain/Indicator: TA1537, Metabolic Activation: RAT, LIVER, S-9, AROCLOR 1254, Method: STANDARD PLATE
[5] = Test System: AMES SALMONELLA TYPHIMURIUM, Strain/Indicator: TA1538, Metabolic Activation: NONE, Method: STANDARD PLATE

Cc1cc(/C=C/c2ccc3cc(N(C)C)ccc3[n+]2C)c(C)n1-c1ccccc1
mutagenic call (Test System: AMES SALMONELLA TYPHIMURIUM, Strain/Indicator: TA98, Metabolic Activation: HUMAN, LIVER, S-9, Method: STANDARD PLATE): active; positive
mutagenic call (Test System: AMES SALMONELLA TYPHIMURIUM, Strain/Indicator: TA98, Metabolic Activation: NONE, Method: PREINCUBATION): active; positive
mutagenic call (Test System: AMES SALMONELLA TYPHIMURIUM, Strain/Indicator: TA98, Metabolic Activation: RAT, LIVER, S-9, AROCLOR 1254, Method: PREINCUBATION): active; positive
mutagenic call (Test System: AMES SALMONELLA TYPHIMURIUM, Strain/Indicator: TA100, Metabolic Activation: HUMAN, LIVER, S-9, Method: STANDARD PLATE): active; positive
mutagenic call (Test System: AMES SALMONELLA TYPHIMURIUM, Strain/Indicator: TA100, Metabolic Activation: NONE, Method: PREINCUBATION): active; positive
mutagenic call (Test System: AMES SALMONELLA TYPHIMURIUM, Strain/Indicator: TA100, Metabolic Activation: RAT, LIVER, S-9, AROCLOR 1254, Method: PREINCUBATION): active; positive
mutagenic call [1]: inactive; negative
mutagenic call [2]: inactive; negative
mutagenic call [3]: inactive; negative
mutagenic call [4]: inactive; negative
mutagenic call [5]: inactive; negative
mutagenic call (Test System: AMES SALMONELLA TYPHIMURIUM, Strain/Indicator: UTH8413, Metabolic Activation: NONE, Method: PREINCUBATION): inactive; negative
mutagenic call (Test System: AMES SALMONELLA TYPHIMURIUM, Strain/Indicator: UTH8414, Metabolic Activation: NONE, Method: PREINCUBATION): active; positive
mutagenic call (Test System: AMES SALMONELLA TYPHIMURIUM, Strain/Indicator: UTH8414, Metabolic Activation: RAT, LIVER, S-9, AROCLOR 1254, Method: PREINCUBATION): active; positive

CC12C=CC(C1)C1C(=O)OC(=O)C12 (stereo not drawn)
mutagenic call (Test System: Ames Salmonella typhimurium, Strain/Indicator: TA98, Metabolic Activation: None, Method: Preincubation): inactive; negative
mutagenic call (Test System: Ames Salmonella typhimurium, Strain/Indicator: TA98, Metabolic Activation: Rat, Liver, S-9, Phenobarbital and 5,6-benzoflavone, Method: Preincubation): inactive; negative
mutagenic call (Test System: Ames Salmonella typhimurium, Strain/Indicator: TA100, Metabolic Activation: None, Method: Preincubation): inactive; negative
mutagenic call (Test System: Ames Salmonella typhimurium, Strain/Indicator: TA100, Metabolic Activation: Rat, Liver, S-9, Phenobarbital and 5,6-benzoflavone, Method: Preincubation): inactive; negative
mutagenic call (Test System: Ames Salmonella typhimurium, Strain/Indicator: TA1535, Metabolic Activation: None, Method: Preincubation): inactive; negative
mutagenic call (Test System: Ames Salmonella typhimurium, Strain/Indicator: TA1535, Metabolic Activation: Rat, Liver, S-9, Phenobarbital and 5,6-benzoflavone, Method: Preincubation): inactive; negative
mutagenic call (Test System: Ames Salmonella typhimurium, Strain/Indicator: TA1537, Metabolic Activation: None, Method: Preincubation): inactive; negative
mutagenic call (Test System: Ames Salmonella typhimurium, Strain/Indicator: TA1537, Metabolic Activation: Rat, Liver, S-9, Phenobarbital and 5,6-benzoflavone, Method: Preincubation): inactive; negative
mutagenic call (Test System: E. coli, Strain/Indicator: WP2uvrA/pKM101, Metabolic Activation: None, Method: Preincubation): inactive; negative
mutagenic call (Test System: E. coli, Strain/Indicator: WP2uvrA/pKM101, Metabolic Activation: Rat, Liver, S-9, Phenobarbital and 5,6-benzoflavone, Method: Preincubation): inactive; negative

O=C1c2cccc(S(=O)(=O)O)c2C(=O)c2cccc([N+](=O)[O-])c21
mutagenic call (Test System: AMES SALMONELLA TYPHIMURIUM, Strain/Indicator: TA98, Metabolic Activation: NONE, Method: STANDARD PLATE): active; positive
mutagenic call (Test System: AMES SALMONELLA TYPHIMURIUM, Strain/Indicator: TA100, Metabolic Activation: NONE, Method: STANDARD PLATE): inactive; negative
mutagenic call (Test System: AMES SALMONELLA TYPHIMURIUM, Strain/Indicator: TA100, Metabolic Activation: RAT, LIVER, S-9, AROCLOR 1254, Method: STANDARD PLATE): inactive; negative
mutagenic call [1]: inactive; negative
mutagenic call [2]: inactive; negative
mutagenic call [3]: inactive; negative
mutagenic call [4]: inactive; negative
mutagenic call [5]: active; positive
mutagenic call (Test System: AMES SALMONELLA TYPHIMURIUM, Strain/Indicator: TA1978, Metabolic Activation: NONE, Method: STANDARD PLATE): inactive; negative
